Tests used:
Type in all cases: functional
Leishmania tropica [1] = assay: Growth inhibition of wild type Leishmania tropica LRC at 1 uM after 72 hrs by MTT assay relative to control; settings: read-out: GI
Leishmania tropica [2] = assay: Growth inhibition of multidrug resistant Leishmania tropica at 15 uM in presence of 150 uM daunomycin after 72 hrs by MTT assay relative to control
Leishmania tropica [3] = assay: Growth inhibition of wild type Leishmania tropica LRC at 15 uM after 72 hrs by MTT assay relative to control; settings: read-out: GI
Leishmania tropica [4] = assay: Growth inhibition of wild type Leishmania tropica LRC at 7 uM after 72 hrs by MTT assay relative to control; settings: read-out: GI
Leishmania tropica [5] = assay: Growth inhibition of multidrug resistant Leishmania tropica at 3 uM in presence of 150 uM daunomycin after 72 hrs by MTT assay relative to control
Leishmania tropica [6] = assay: Growth inhibition of multidrug resistant Leishmania tropica at 7 uM in presence of 150 uM daunomycin after 72 hrs by MTT assay relative to control
Leishmania tropica [7] = assay: Growth inhibition of wild type Leishmania tropica LRC at 3 uM after 72 hrs by MTT assay relative to control; settings: read-out: GI
Leishmania tropica [8] = assay: Growth inhibition of multidrug resistant Leishmania tropica at 1 uM in presence of 150 uM daunomycin after 72 hrs by MTT assay relative to control

Question: For CC(=O)O[C@@H]1[C@@H]2[C@@H](OC(=O)c3cccnc3)[C@]3(OC2(C)C)[C@H](C)CC[C@H](OC(=O)c2ccccc2)[C@@]3(C)[C@@H]1OC(=O)c1ccccc1, which inhibition of growth at 1 µM (Leishmania tropica [1]) is on record?
Answer: 0%

Question: And the “growth inhibition (GI)” value (Leishmania tropica [2])?
Answer: 96.1%

Question: What about the inhibition of growth at 15 µM (Leishmania tropica [3]) of the same compound?
Answer: 2.3%

Question: What about the inhibition of growth at 7 µM (Leishmania tropica [4]) of the same compound?
Answer: 0.8%

Question: And the “growth inhibition (GI)” value (Leishmania tropica [5])?
Answer: 21.2%

Question: And the “growth inhibition (GI)” value (Leishmania tropica [6])?
Answer: 59.2%

Question: What about the inhibition of growth at 3 µM (Leishmania tropica [7]) of the same compound?
Answer: 0%

Question: What about the “growth inhibition (GI)” value (Leishmania tropica [8]) of the same compound?
Answer: 8.6%

Question: For CC(=O)O[C@@H]1[C@@H]2[C@@H](OC(=O)c3cccnc3)[C@@]3(OC2(C)C)[C@@](C)([C@@H](OC(=O)c2ccccc2)CC[C@@]3(C)O)[C@@H]1OC(=O)c1ccccc1, which inhibition of growth at 1 µM (Leishmania tropica [1]) is on record?
Answer: 0%

Question: What about the “growth inhibition (GI)” value (Leishmania tropica [2]) of the same compound?
Answer: 98.5%

Question: And the inhibition of growth at 15 µM (Leishmania tropica [3])?
Answer: 13.6%

Question: What about the inhibition of growth at 7 µM (Leishmania tropica [4]) of the same compound?
Answer: 0%

Question: What about the “growth inhibition (GI)” value (Leishmania tropica [5]) of the same compound?
Answer: 62.8%

Question: What about the “growth inhibition (GI)” value (Leishmania tropica [6]) of the same compound?
Answer: 90.2%

Question: And the inhibition of growth at 3 µM (Leishmania tropica [7])?
Answer: 0%

Question: And the “growth inhibition (GI)” value (Leishmania tropica [8])?
Answer: 15.8%
